The data set in a line: Micropipette aspiration of polymersome membranes. The format is physicochemical. The text has this: Thermal undulations of the quasi-spherical polymersome membranes provide an immediate indication of membrane softness. […] The micromanipulations are done with micropipette systems, as described above, and analogous to those described by Longo et al. (1997) and by Discher et al. (1994).
Analogous to a lipid bilayer, at low but increasing aspiration pressures, the thermally undulating polymersome membrane is progressively smoothed, increasing the projected area logarithmically with tension, t. From the slope of this increase (i.e., in tension units of mN/m) versus the fractional change, α, in vesicle area, the bending modulus, Kb, is calculated (see, e.g., Evans et al., 1990) with the following equation:
Kb≅kBT ln(t)/(8απ)+constant Equation 3 […]
Despite the comparative toughness of the polymersome membrane, a core “cavitation pressure,” Pc, may be readily estimated as pc=tc/d (5) yielding a value of pc=−25 atm. […] Bulk liquids such as water and light organics, are commonly reported to have measured tensile strengths of such a magnitude as may be generically estimated from a ratio of nominal interfacial tensions to molecular dimensions (i.e., ˜γ/d).

Each structure is given as a SMILES string.

Take `CCCCCCCC/C=C\CCCCCCCC(=O)O[C@H](COC(=O)CCCCCCCCCCCCCCCCC)COP(=O)([O-])OCC[N+](C)(C)C` [SOPC, 1-stearoyl-2-oleoyl phosphatidylcholine]: the “area expansion modulus, Ka” value is reported as around 180 mN/m.

The values are drawn from patent US20080319375A1, “Materials, Methods, and Systems for Cavitation-mediated Ultrasonic Drug Delivery in vivo” (Biovaluation & Analysis, Inc., priority 2007, published 2008).
